From ChEMBL document CHEMBL3991601, “The target landscape of clinical kinase drugs” (Science, 2017)
Calls of active or inactive are those of the source. Rule as the data show it, for most assays here: actives have a measured Kd and inactives only a lower limit.

Tests used:
[1] = target: Eukaryotic translation initiation factor 2-alpha kinase 1 (Homo sapiens, UniProt Q9BQI3)
[2] = target: Serine/threonine-protein kinase PAK 2 (Homo sapiens, UniProt Q13177)
[3] = target: Maternal embryonic leucine zipper kinase (Homo sapiens, UniProt Q14680)
Sequence of Maternal embryonic leucine zipper kinase (Q14680 whole entry): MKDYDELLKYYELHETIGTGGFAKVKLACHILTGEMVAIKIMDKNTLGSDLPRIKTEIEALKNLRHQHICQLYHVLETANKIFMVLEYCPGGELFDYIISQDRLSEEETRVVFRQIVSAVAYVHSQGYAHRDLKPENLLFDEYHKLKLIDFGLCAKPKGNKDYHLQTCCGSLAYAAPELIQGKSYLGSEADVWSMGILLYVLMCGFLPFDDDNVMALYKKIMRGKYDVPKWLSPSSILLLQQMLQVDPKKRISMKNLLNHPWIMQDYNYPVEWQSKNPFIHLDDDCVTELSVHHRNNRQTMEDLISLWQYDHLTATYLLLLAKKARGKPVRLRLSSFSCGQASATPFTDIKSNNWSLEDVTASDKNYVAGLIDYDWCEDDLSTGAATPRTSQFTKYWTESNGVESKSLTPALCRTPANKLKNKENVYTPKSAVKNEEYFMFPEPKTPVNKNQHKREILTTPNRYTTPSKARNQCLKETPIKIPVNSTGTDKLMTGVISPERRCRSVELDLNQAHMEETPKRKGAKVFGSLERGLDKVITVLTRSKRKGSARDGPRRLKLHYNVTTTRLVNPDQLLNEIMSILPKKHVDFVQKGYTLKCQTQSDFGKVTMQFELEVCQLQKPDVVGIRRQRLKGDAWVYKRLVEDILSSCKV

[4] = target: T1, STE20-related kinase adapter protein alpha (Homo sapiens, UniProt Q7RTN6)
T1 sequence (Q7RTN6 whole entry): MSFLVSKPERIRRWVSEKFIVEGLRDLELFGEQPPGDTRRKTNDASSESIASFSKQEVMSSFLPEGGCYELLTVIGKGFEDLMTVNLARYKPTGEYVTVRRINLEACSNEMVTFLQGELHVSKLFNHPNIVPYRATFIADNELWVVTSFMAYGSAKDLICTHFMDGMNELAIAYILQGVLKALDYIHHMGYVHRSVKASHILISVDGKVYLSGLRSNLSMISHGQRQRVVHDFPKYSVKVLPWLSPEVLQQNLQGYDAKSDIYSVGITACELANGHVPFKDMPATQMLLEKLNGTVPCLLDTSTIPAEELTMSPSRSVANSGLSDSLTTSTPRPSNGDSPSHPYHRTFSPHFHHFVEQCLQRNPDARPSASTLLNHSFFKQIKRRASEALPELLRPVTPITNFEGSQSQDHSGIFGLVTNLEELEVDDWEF

[5] = target: T2, Cysteine--tRNA ligase, cytoplasmic (Homo sapiens, UniProt P49589)
T2 sequence (P49589 whole entry): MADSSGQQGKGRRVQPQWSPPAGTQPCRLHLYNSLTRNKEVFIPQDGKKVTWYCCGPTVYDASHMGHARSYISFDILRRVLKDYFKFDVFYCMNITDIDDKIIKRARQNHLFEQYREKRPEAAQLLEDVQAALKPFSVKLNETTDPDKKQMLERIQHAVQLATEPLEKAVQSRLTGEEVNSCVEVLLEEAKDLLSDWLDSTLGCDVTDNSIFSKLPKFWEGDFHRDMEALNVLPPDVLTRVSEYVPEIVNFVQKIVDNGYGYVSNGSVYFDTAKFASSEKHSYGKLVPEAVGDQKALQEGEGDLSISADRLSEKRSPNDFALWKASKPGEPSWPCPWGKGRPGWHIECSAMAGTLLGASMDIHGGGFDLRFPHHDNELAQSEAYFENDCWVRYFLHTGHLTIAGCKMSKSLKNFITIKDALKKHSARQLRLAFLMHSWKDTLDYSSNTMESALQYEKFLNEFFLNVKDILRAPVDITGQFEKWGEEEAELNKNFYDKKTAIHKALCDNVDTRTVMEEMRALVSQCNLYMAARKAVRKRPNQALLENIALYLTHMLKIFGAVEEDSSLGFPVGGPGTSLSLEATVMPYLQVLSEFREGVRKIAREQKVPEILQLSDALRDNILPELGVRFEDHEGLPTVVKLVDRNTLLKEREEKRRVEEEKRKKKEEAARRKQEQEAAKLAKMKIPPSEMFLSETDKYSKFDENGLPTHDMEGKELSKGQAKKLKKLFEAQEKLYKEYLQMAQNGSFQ

[6] = target: T3, Ribosyldihydronicotinamide dehydrogenase [quinone] (Homo sapiens, UniProt P16083)
T3 sequence (P16083 whole entry): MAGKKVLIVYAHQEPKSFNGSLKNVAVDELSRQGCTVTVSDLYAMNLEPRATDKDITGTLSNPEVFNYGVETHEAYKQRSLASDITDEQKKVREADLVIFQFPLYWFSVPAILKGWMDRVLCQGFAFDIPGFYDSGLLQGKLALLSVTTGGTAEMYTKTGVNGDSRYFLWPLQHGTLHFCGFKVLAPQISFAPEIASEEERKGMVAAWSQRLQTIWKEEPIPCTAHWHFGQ

[7] = target: T4, Mitogen-activated protein kinase 15 (Homo sapiens, UniProt Q8TD08)
T4 sequence (Q8TD08 whole entry): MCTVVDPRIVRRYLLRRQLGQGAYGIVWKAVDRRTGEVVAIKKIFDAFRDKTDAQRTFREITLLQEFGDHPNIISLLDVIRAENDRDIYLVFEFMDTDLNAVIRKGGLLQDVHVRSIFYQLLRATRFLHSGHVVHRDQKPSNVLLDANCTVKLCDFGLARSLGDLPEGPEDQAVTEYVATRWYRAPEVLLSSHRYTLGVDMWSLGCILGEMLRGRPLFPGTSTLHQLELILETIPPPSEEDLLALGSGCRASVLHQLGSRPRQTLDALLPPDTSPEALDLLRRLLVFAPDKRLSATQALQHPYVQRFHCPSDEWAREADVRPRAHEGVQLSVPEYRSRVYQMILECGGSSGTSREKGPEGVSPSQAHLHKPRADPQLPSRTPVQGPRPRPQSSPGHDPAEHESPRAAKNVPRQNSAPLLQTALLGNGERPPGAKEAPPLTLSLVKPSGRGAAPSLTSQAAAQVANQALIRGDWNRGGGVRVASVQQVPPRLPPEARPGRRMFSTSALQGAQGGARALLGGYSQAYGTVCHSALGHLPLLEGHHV

[8] = target: Macrophage-stimulating protein receptor (Homo sapiens, UniProt Q04912)
Sequence of Macrophage-stimulating protein receptor (Q04912 25-304 limits assumed): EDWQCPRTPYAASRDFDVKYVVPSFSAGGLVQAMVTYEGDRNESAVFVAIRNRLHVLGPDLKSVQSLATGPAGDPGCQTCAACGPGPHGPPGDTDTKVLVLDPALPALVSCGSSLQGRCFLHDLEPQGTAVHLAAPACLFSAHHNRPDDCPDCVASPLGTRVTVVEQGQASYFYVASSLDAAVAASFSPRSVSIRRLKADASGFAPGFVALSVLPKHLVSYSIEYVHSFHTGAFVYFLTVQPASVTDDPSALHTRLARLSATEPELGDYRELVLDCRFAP
Sequence of Macrophage-stimulating protein receptor (Q04912 310-1400 limits assumed): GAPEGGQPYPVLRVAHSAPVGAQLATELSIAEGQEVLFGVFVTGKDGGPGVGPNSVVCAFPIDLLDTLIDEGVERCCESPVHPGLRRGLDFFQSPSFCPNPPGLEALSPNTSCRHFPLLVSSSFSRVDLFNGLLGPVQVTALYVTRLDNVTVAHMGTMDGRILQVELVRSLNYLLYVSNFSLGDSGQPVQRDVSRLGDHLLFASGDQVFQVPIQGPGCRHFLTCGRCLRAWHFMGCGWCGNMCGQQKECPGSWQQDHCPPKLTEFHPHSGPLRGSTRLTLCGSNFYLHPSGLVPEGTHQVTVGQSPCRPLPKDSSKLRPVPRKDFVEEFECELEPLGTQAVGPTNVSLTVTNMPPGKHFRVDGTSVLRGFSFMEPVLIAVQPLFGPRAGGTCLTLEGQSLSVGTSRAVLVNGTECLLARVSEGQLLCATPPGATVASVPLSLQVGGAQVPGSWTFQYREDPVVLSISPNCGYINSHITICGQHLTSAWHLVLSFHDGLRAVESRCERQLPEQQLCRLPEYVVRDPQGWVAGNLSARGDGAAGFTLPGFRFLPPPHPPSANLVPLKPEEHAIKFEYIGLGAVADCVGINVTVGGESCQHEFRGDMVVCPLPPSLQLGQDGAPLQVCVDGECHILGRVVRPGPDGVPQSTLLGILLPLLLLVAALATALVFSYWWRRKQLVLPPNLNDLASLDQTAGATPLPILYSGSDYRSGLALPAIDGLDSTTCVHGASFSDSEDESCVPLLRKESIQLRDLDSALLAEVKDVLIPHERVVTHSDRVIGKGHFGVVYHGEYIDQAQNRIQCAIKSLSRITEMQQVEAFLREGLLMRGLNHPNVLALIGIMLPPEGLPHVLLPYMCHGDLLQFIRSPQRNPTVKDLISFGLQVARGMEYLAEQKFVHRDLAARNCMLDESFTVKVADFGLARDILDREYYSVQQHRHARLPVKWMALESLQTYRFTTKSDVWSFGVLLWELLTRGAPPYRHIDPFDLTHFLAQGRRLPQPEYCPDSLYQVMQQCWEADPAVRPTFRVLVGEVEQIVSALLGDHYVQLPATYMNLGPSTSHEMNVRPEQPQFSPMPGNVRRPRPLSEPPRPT

[9] = target: Serine/threonine-protein kinase N2 (Homo sapiens, UniProt Q16513)
Sequence of Serine/threonine-protein kinase N2 (Q16513 whole entry): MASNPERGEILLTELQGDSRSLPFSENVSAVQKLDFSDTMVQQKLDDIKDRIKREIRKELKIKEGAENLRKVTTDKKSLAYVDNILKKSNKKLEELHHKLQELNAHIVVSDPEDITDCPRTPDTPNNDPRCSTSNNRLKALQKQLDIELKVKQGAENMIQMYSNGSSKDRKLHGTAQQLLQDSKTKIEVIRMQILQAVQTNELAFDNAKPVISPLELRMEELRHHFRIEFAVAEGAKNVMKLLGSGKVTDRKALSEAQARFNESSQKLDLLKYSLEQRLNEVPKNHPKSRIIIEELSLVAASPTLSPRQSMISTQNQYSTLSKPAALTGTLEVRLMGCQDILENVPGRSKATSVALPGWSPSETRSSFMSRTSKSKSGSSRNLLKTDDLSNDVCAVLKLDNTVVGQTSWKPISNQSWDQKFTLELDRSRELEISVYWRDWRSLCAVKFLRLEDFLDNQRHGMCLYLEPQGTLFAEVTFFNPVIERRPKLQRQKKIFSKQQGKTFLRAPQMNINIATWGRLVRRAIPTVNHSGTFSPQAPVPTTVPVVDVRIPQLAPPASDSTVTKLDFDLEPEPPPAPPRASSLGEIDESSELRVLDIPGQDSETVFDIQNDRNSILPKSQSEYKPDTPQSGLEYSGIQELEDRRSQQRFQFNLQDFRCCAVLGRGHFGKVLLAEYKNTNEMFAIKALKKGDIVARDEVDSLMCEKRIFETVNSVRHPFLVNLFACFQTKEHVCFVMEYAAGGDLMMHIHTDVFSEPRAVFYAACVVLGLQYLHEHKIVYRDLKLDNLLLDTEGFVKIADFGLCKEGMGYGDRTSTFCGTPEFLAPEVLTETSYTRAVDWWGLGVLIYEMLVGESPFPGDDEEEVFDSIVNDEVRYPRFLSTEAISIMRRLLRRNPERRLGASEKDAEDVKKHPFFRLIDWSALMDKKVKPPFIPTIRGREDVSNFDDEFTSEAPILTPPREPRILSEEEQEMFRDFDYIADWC

[10] = target: T5, Serine/threonine-protein kinase Chk1 (Homo sapiens, UniProt O14757)
T5 sequence (O14757 whole entry): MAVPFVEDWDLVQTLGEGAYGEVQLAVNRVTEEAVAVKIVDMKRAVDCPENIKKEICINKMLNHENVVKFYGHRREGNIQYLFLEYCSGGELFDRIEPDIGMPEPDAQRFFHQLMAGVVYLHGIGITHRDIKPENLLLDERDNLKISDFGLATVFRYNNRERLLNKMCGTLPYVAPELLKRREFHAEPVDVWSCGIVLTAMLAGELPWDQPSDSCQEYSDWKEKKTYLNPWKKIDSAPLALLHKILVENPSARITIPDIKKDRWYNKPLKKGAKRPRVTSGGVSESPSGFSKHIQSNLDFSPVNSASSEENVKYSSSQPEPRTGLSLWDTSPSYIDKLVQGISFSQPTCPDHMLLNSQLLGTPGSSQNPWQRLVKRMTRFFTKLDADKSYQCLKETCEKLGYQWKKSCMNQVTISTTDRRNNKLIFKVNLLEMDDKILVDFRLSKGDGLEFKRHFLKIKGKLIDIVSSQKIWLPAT
Also: in the data inactive means no Kd found up to 30 µM.

Sequence of Eukaryotic translation initiation factor 2-alpha kinase 1 (Q9BQI3 whole entry): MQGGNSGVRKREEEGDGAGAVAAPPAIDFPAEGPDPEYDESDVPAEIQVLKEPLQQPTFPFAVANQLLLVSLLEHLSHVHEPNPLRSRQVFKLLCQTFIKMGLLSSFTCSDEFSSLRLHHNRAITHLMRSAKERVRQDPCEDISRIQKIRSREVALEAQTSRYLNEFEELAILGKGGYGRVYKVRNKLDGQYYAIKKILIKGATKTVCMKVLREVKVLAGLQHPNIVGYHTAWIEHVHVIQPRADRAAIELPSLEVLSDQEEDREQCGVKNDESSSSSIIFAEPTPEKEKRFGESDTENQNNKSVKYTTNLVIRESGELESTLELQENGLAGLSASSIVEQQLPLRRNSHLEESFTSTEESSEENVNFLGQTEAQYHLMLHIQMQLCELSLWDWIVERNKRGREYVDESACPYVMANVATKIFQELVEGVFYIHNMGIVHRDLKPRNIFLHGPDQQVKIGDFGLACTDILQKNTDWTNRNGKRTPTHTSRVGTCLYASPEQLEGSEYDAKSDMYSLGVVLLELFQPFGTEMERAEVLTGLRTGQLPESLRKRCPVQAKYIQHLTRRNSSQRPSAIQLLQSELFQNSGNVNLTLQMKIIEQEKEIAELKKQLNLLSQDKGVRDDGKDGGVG
Sequence of Serine/threonine-protein kinase PAK 2 (Q13177 whole entry): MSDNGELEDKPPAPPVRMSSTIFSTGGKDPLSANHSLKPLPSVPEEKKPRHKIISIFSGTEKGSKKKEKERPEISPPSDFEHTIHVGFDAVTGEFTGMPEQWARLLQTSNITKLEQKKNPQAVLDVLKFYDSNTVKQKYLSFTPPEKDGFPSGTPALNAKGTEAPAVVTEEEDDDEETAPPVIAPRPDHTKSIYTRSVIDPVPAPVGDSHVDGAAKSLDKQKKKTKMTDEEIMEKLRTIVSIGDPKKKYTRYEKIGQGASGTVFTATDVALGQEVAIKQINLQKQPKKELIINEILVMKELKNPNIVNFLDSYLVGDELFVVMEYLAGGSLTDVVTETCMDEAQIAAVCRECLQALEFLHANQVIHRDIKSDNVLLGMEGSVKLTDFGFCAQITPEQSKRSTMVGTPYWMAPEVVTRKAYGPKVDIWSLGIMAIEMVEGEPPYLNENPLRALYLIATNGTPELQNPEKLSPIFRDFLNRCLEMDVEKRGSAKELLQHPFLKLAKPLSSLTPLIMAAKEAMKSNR

SMILES | Kd [1] | Kd [2] | Kd [3] | Kd [4] | Kd [5] | Kd [6] | Kd [8] | Kd [9] | Kd [10] | Kd [7]
COCCNCc1ccc(-c2cc3nccc(Oc4ccc(NC(=S)NC(=O)Cc5ccc(F)cc5)cc4F)c3s2)nc1 [GLESATINIB] | > 30 µM (inactive) | > 30 µM (inactive) | > 30 µM (inactive) | > 30 µM (inactive) | > 30 µM (inactive) | > 30 µM (inactive) | 2.32 µM (active) | > 30 µM (inactive) | > 30 µM (inactive) | > 30 µM (inactive)
N[C@@H]1CCCN(c2c(/C=C3\SC(=O)NC3=O)cccc2-c2ccccc2)C1 | > 30 µM (inactive) | > 30 µM (inactive) | > 30 µM (inactive) | > 30 µM (inactive) | > 30 µM (inactive) | > 30 µM (inactive) | > 30 µM (inactive) | > 30 µM (inactive) | > 30 µM (inactive) | > 30 µM (inactive)
Cc1cc(-c2cc(O)ccc2Cl)cc2nnc(Nc3ccc(OCCN4CCCC4)cc3)nc12 | > 30 µM (inactive) | > 30 µM (inactive) | > 30 µM (inactive) | > 30 µM (inactive) | > 30 µM (inactive) | > 30 µM (inactive) | > 30 µM (inactive) | > 30 µM (inactive) | > 30 µM (inactive) | > 30 µM (inactive)
O=C(c1ccc(F)c(F)c1Nc1ccc(I)cc1F)N1CC(O)([C@@H]2CCCCN2)C1 [COBIMETINIB] | > 30 µM (inactive) | > 30 µM (inactive) | > 30 µM (inactive) | > 30 µM (inactive) | > 30 µM (inactive) | > 30 µM (inactive) | > 30 µM (inactive) | > 30 µM (inactive) | > 30 µM (inactive) | > 30 µM (inactive)
CO[C@H]1C[C@@H]2CC[C@@H](C)[C@@](O)(O2)C(=O)C(=O)N2CCCC[C@H]2C(=O)O[C@H]([C@H](C)C[C@@H]2CC[C@@H](OCCO)[C@H](OC)C2)CC(=O)[C@H](C)/C=C(\C)[C@@H](O)[C@@H](OC)C(=O)[C@H](C)C[C@H](C)/C=C/C=C/C=C/1C [EVEROLIMUS] | > 30 µM (inactive) | > 30 µM (inactive) | > 30 µM (inactive) | > 30 µM (inactive) | > 30 µM (inactive) | > 30 µM (inactive) | > 30 µM (inactive) | > 30 µM (inactive) | > 30 µM (inactive) | > 30 µM (inactive)
Cc1ccc(NC(=O)c2ccc(CN3CC[C@H](N(C)C)C3)c(C(F)(F)F)c2)cc1Nc1nccc(-c2cncnc2)n1 [BAFETINIB] | > 30 µM (inactive) | > 30 µM (inactive) | > 30 µM (inactive) | > 30 µM (inactive) | > 30 µM (inactive) | 6.87 µM | > 30 µM (inactive) | > 30 µM (inactive) | > 30 µM (inactive) | > 30 µM (inactive)
COc1ccc(-c2ccc3c(N4CCOC[C@@H]4C)nc(N4CCOC[C@@H]4C)nc3n2)cc1CO [AZD-8055] | > 30 µM (inactive) | > 30 µM (inactive) | > 30 µM (inactive) | > 30 µM (inactive) | > 30 µM (inactive) | > 30 µM (inactive) | > 30 µM (inactive) | > 30 µM (inactive) | > 30 µM (inactive) | > 30 µM (inactive)
Cc1ccc(-n2nc(C(C)(C)C)cc2NC(=O)NCc2cc(F)ccc2Oc2ccc3c(cnn3CCO)c2)cc1 [PEXMETINIB] | > 30 µM (inactive) | > 30 µM (inactive) | > 30 µM (inactive) | > 30 µM (inactive) | > 30 µM (inactive) | > 30 µM (inactive) | > 30 µM (inactive) | > 30 µM (inactive) | > 30 µM (inactive) | > 30 µM (inactive)

Now from value to compound, other results behind:

Kd [1] | Kd [2] | Kd [3] | Kd [4] | Kd [5] | Kd [6] | Kd [8] | Kd [9] | Kd [10] | SMILES | Kd [7]
> 30 µM (inactive) | > 30 µM (inactive) | > 30 µM (inactive) | > 30 µM (inactive) | > 30 µM (inactive) | > 30 µM (inactive) | > 30 µM (inactive) | > 30 µM (inactive) | > 30 µM (inactive) | CNC(=O)CN1CCC(Oc2cc3c(Nc4cccc(Cl)c4F)ncnc3cc2OC)CC1 [SAPITINIB] | > 30 µM (inactive)
> 30 µM (inactive) | > 30 µM (inactive) | > 30 µM (inactive) | > 30 µM (inactive) | > 30 µM (inactive) | > 30 µM (inactive) | > 30 µM (inactive) | > 30 µM (inactive) | > 30 µM (inactive) | CC[C@@H]1C(=O)N(C)c2cnc(Nc3ccc(C(=O)N[C@H]4CC[C@H](N5CCN(CC6CC6)CC5)CC4)cc3OC)nc2N1C(C)C [VOLASERTIB] | > 30 µM (inactive)
> 30 µM (inactive) | > 30 µM (inactive) | > 30 µM (inactive) | > 30 µM (inactive) | > 30 µM (inactive) | 9.92 µM (active) | > 30 µM (inactive) | > 30 µM (inactive) | > 30 µM (inactive) | C[C@@H]1CN(Cc2ccc(F)cc2)[C@@H](C)CN1C(=O)c1cc2c(C(=O)C(=O)N(C)C)cn(C)c2cc1Cl [TALMAPIMOD] | > 30 µM (inactive)
> 30 µM (inactive) | > 30 µM (inactive) | > 30 µM (inactive) | > 30 µM (inactive) | > 30 µM (inactive) | > 30 µM (inactive) | > 30 µM (inactive) | > 30 µM (inactive) | > 30 µM (inactive) | CC(C)Nc1cc(-c2c[nH]c(C(=O)N[C@H](CO)c3cccc(Cl)c3)c2)c(Cl)cn1 [ULIXERTINIB] | > 30 µM (inactive)
> 30 µM (inactive) | > 30 µM (inactive) | > 30 µM (inactive) | > 30 µM (inactive) | > 30 µM (inactive) | > 30 µM (inactive) | > 30 µM (inactive) | > 30 µM (inactive) | > 30 µM (inactive) | O=C(O)[C@]1(Cc2cccc(Nc3nccs3)n2)CC[C@@H](Oc2cccc(Cl)c2F)CC1 [MK-5108] | > 30 µM (inactive)
